According to patent US11311523B2, “Pyridinone compound and use thereof” (KYUSHU UNIVERSITY, NATIONAL UNIVERSITY CORPORATION, priority 2015, dated 2022):

Assays:
[1] = tested on: 3LL cells; experiment: inhibition of macropinocytosis (TMR-dextran uptake); assay type: cell-based, mouse
Method: (§1) Pharmacological Test 5 (Experiment of Inhibition of Macropinocytosis of Cancer Cells)
(§2) Macropinocytosis is a phenomenon in which cells take up various substances together with extracellular fluid while extending cellular membranes. Remodeling of actin cytoskeleton through Rac activity is known to be important.
(§3) One hundred and fifty microliters of 4×10^4 3LL cells or HT-1080 cells were seeded on the glass portion of fibronectin-coated glass-bottom culture dishes. After 16-hour culture at 37° C., the medium was changed to DMEM (serum free) and cultured for 24 hours to allow the cells to be serum-starved. Subsequently, the medium was changed to 2 mL of serum-free medium containing DMSO alone or DMSO in which each pyridinone compound was dissolved, followed by pretreatment for 1 hour. The final concentration of DMSO was adjusted to 0.2%.
(§4) The cells were added to 180 μL of medium with TMR-dextran (final concentration: 500 μg/mL)-containing DMEM (with 10% FBS) containing DMSO alone or DMSO in which a predetermined concentration of each pyridinone compound was dissolved, as in the case above, followed by incubation at 37° C. for 1 hour. Thereafter, the cells were fixed by 60-minute incubation at room temperature in a 4% paraformaldehyde solution. […] The macropinocytosis activity was measured based on the number of TMR-dextran spots per cell. […]

[2] = tested on: HT-1080 cells; experiment: as above; assay type: cell-based, human
Method: as §1, §2, §3, §4

[3] = tested on: human colon cancer cell line (DLD-1); experiment: cellular invasion inhibition assay (Matrigel chamber); assay type: cell-based; conditions: FIG. 12(D)
Method: Pharmacological Test 2 (Cellular Invasion Inhibition Assay)
Three hundred microliters of a suspension of a mouse lung carcinoma cell line (3LL), a human fibrosarcoma cell line (HT-1080), or a human colon cancer cell line (DLD-1) in DMEM (serum free) was placed in the upper chamber with Matrigel (BD Biosciences) equilibrated with DMEM (serum free) for 120 minutes, while 500 μL of DMEM (with 10% FCS) was placed in the lower chamber. Each pyridinone compound or CPYPP dissolved at a predetermined concentration in DMSO was added to the culture media in both the upper and lower chambers. As a control, DMSO alone was added to the media. In all of the experiments, the final DMSO concentration was adjusted to 0.2%.
After the resulting products were cultured at 37° C. under 5% CO2 for 22 hours, the chambers were removed, and the culture media were removed. […] After staining, the inserts were cut out with a blade to prepare slides, and the cells were counted under an optical microscope.
The results were evaluated based on percent cell invasion (%: Invasion) and percent inhibition (%: inhibition). The percent cell invasion was obtained by converting the number of invading cells under each condition to percentage, taking the number of invading cells in the control, to which DMSO was added alone, as 100%; and the percent inhibition was obtained by deducting the percent cell invasion from 100.

[4] = tested on: mouse melanoma B16F10 cells; experiment: inhibition of lung metastasis of mouse melanoma cells; assay type: in vivo
Method: (§5) Pharmacological Test 8 (Experiment for Inhibition of Lung Metastasis of Mouse Melanoma Cells)
(§6) Mouse melanoma B16F10 cells suspended in 200 μL of PBS(−) were injected (2.5 or 5×10^5 cells per mouse) into the tail vein of C57BL/6 mice (6 weeks old, female). […] For a control group, an equivalent amount of a solvent (a liquid mixture of PBS/CremophoreEL/ethanol (6:1:1)) alone was administered. The administration was performed 4 times in total: immediately before the cell transplantation, and day 1, day 3, and day 5 after the transplantation. Fourteen days after the first administration, the lung was excised from each mouse, and the number of tumor metastatic foci at the lung surface was counted.

[5] = mouse body weight in the lung metastasis experiment; assay type: in vivo; conditions: 0.2, 0.6 or 2 mg/mouse iv, FIG. 17(D)
Method: as §5, §6

With `O=C(Cn1cc(S(=O)(=O)N2CCCC2)ccc1=O)c1ccc(-c2ccc3ccccc3c2)cc1` [TS-28, 1-(2-(4-(naphthalen-2-yl)phenyl)-2-oxoethyl)-5-(pyrrolidin-1-ylsulfonyl)pyridin-2(1H)-one] the inhibition of macropinocytosis [1] was “inhibit macropinocytosis in 3LL cells and HT-1080 cells in a concentration-dependent manner” and the inhibition of macropinocytosis [2] was “inhibit macropinocytosis in 3LL cells and HT-1080 cells in a concentration-dependent manner”.

In the case of `O=C(Cn1cc(S(=O)(=O)N2CCCC2)ccc1=O)c1ccc(-c2cccc(C(F)(F)F)c2)cc1` [TS-45, 1-(2-oxo-2-(3′-(trifluoromethyl)-[1,1′-biphenyl]-4-yl)ethyl)-5-(pyrrolidin-1-ylsulfonyl)pyridin-2(1H)-one], the “inhibition of DLD-1 cell invasion” value [3] is reported as “inhibits DLD-1 cell invasion”, the inhibition of macropinocytosis [1] is reported as “inhibit macropinocytosis in 3LL cells and HT-1080 cells in a concentration-dependent manner” and the inhibition of macropinocytosis [2] is reported as “inhibit macropinocytosis in 3LL cells and HT-1080 cells in a concentration-dependent manner”. The “metastasis of melanoma cells to the lung” value ([4]; C57BL/6 mice, 2 mg/mouse iv, 4 times, FIG. 17(B)) was “significantly inhibited”, the “number of cells that underwent metastasis to the lung, reduced to” value ([4]; dose of about 0.2 mg to a mouse, iv 4 times, FIG. 17(C)) was “about 20%” and the mouse body weight [5] was “not affected”.
